Assay results reported in patent US8846935B2, “Indazoles” (GlaxoSmithKline LLC, priority 2010, dated 2014).
Structures can show the parent of a compound that is named as a salt.

Target: T1, EZH2 within the PRC2 complex (Homo sapiens, UniProt Q15910)
T1 construct: FLAG; made in house; host or cells: Sf9 cells
Assay: EZH2 methyltransferase scintillation proximity assay (SPA)
Format: biochemical
Conditions: methyltransferase activity of EZH2 in human PRC2 complex, 3H-SAM, HeLa mononucleosomes
Procedure: Compounds contained herein were evaluated for their ability to inhibit the methyltransferase activity of EZH2 within the PRC2 complex. Human PRC2 complex was prepared by co-expressing each of the 5 member proteins (FLAG-EZH2, EED, SUZ12, RbAp48, AEBP2) in Sf9 cells followed by co-purification. Enzyme activity was measured in a scintillation proximity assay (SPA) where a tritiated methyl group is transferred from 3H-SAM to a lysine residue on Histone H3 of a mononucleosome, purified from HeLa cells. Mononucleosomes were captured on SPA beads and the resulting signal is read on a ViewLux plate reader.
Part A. Compound Preparation
• 1. Prepare 10 mM stock of compounds from solid in 100% DMSO. • 2. Set up an 11-point serial dilution (1:3 dilution, top concentration 10 mM) in 100% DMSO for each test compound in a 384 well plate leaving columns 6 and 18 for DMSO controls. • 3. Dispense 100 nL of compound from the dilution plate into reaction plates (Grenier Bio-One, 384-well, Cat#784075). Part B. Reagent Preparation Prepare the following solutions: • 1. 50 mM Tris-HCl, pH 8: Per 1 L of base buffer, combine 1 M Tris-HCl, pH 8 (50 mL) and distilled water (950 mL). • 2. 1× Assay Buffer: Per 10 mL of 1× Assay Buffer, combine 50 mM Tris-HCl, pH 8 (9958 uL), 1 M MgCl2 (20 uL), 2 M DTT (20 uL), and 10% Tween-20 (2 uL) to provide a final concentration of 50 mM Tris-HCl, pH 8, 2 mM MgCl2, 4 mM DTT, 0.002% Tween-20. • 3. 2× Enzyme Solution: Per 10 mL of 2× Enzyme Solution, combine 1× Assay Buffer and PRC2 complex to provide a final enzyme concentration of 10 nM. • 4. SPA Bead Suspension: Per 1 mL of SPA Bead Suspension, combine PS-PEI coated LEADSeeker beads (40 mg) and ddH2O (1 mL) to provide a final concentration of 40 mg/mL. • 5. 2× Substrate Solution: Per 10 mL of 2× Substrate Solution, combine 1× Assay Buffer (9728.55 uL), 800 ug/mL mononucleosomes (125 uL), 1 mM cold SAM (4 uL), and 7.02 uM 3H-SAM (142.45 uL; 0.55 mCi/mL) to provide a final concentration of 5 ug/mL nucleosomes, 0.2 uM cold SAM, and 0.05 uM 3H-SAM. • 6. 2.67× Quench/Bead Mixture: Per 10 mL of 2.67× Quench/Bead Mixture, combine ddH2O (9358 uL), 10 mM cold SAM (267 uL), 40 mg/mL Bead Suspension (375 uL) to provide a final concentration of 100 uM cold SAM and 0.5 mg/mL SPA beads. Part C. Assay Reaction in 384-well Grenier Bio-One Plates Compound Addition • 1. Dispense […] of 100× Compound to test wells (as noted above). • 2. Dispense […] of 100% DMSO to columns 6 & 18 for high and low controls, respectively. Assay • 1. Dispense 5 uL/well of 1× Assay Buffer to column 18 (low control reactions). • 2. Dispense 5 uL/well of 2× Enzyme Solution to columns 1-17, 19-24. • 3. Spin assay plates for ˜1 minute at 500 rpm. • 4. Stack the assay plates, covering the top plate. • 5. Incubate the compound/DMSO with the enzyme for 30 minutes at room temperature. • 6. Dispense 5 uL/well of 2× Substrate Solution to columns 1-24. • 7. Spin assay plates for ˜1 minute at 500 rpm. • 8. Stack the assay plates, covering the top plate. • 9. Incubate the assay plates at room temperature for 1 hour. Quench/Bead Addition • 1. Dispense 5 uL/well of the 3× Quench/Bead Mixture to columns 1-24. • 2. Seal the top of each assay plate with adhesive TopSeal. • 3. Spin assay plates for ˜1 minute at 500 rpm. • 4. Equilibrate the plates for >20 min. Read Plates • 1. Read the assay plates on the Viewlux Plate Reader utilizing the 613 nm emission filter with a 300 s read time. Reagent addition can be done manually or with automated liquid handler. *The final DMSO concentration in this assay is 1%. *The positive control is in column 6; negative control is in column 18. *Final starting concentration of compounds is 100 μM. Part D. Data Analysis
Percent inhibition was calculated relative to the DMSO control for each compound concentration and the resulting values were fit using standard IC50 fitting parameters within the ABASE data fitting software package.

T1 sequence (Q15910 whole entry): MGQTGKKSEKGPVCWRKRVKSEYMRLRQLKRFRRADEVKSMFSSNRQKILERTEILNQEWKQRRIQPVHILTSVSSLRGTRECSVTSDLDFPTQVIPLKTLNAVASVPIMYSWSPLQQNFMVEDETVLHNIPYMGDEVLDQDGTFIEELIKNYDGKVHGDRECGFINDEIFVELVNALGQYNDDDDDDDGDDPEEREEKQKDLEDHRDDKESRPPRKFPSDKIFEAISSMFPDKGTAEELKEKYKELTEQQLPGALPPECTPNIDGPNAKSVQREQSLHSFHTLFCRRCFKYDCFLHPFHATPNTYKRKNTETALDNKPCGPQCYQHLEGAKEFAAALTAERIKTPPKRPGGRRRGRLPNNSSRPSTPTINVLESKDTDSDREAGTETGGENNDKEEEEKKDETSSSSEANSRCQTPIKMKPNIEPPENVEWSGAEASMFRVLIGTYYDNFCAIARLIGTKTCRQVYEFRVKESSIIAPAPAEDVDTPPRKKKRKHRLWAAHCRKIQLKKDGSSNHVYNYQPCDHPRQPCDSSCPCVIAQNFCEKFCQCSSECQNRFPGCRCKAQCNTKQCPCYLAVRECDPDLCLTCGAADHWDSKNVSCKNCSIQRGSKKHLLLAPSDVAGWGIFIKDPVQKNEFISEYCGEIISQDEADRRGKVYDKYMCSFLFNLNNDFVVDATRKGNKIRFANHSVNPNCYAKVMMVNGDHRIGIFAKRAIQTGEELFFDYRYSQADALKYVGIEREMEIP
T1 sequence (O75530 whole entry partner): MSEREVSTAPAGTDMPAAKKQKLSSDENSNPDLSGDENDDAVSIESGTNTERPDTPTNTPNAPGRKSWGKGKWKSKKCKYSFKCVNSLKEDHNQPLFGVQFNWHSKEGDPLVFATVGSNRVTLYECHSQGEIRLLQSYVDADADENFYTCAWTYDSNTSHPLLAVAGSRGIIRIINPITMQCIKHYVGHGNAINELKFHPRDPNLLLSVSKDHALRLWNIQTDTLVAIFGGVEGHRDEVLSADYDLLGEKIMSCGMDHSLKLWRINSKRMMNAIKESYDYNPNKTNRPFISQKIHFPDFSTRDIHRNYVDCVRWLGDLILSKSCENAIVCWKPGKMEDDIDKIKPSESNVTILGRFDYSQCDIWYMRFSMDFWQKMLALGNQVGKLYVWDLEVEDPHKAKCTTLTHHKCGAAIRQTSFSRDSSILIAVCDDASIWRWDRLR
T1 sequence (Q15022 whole entry partner): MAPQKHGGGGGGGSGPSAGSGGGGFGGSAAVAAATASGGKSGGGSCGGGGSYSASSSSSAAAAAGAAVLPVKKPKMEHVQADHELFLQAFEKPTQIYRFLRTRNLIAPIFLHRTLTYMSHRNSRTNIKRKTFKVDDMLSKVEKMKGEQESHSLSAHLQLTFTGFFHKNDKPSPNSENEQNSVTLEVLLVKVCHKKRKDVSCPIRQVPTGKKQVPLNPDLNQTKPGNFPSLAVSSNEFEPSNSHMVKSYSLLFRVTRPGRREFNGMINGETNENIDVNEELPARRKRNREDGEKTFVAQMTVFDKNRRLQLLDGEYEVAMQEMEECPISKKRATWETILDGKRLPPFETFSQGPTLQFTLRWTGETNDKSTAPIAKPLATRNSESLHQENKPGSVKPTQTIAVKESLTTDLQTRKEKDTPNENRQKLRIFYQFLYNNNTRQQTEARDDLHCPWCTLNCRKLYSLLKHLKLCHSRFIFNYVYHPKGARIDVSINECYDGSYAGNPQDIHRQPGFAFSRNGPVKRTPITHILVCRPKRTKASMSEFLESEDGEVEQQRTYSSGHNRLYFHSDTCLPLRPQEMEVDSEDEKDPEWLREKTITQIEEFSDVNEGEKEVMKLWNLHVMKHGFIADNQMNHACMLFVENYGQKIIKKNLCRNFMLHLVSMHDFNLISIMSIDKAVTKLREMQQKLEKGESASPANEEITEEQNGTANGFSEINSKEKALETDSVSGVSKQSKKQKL
T1 sequence (Q09028 whole entry partner): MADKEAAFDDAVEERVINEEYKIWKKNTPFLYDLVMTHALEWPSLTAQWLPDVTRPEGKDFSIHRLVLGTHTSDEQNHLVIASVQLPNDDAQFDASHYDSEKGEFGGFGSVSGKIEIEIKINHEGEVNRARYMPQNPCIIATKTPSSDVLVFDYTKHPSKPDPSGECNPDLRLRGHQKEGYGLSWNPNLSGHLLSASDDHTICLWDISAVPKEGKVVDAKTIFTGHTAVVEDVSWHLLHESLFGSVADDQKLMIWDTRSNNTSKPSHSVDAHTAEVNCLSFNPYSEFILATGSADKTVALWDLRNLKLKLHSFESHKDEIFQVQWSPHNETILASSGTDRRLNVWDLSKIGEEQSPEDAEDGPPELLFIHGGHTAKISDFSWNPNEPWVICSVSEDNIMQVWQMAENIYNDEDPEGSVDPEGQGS
T1 sequence (Q6ZN18 whole entry partner): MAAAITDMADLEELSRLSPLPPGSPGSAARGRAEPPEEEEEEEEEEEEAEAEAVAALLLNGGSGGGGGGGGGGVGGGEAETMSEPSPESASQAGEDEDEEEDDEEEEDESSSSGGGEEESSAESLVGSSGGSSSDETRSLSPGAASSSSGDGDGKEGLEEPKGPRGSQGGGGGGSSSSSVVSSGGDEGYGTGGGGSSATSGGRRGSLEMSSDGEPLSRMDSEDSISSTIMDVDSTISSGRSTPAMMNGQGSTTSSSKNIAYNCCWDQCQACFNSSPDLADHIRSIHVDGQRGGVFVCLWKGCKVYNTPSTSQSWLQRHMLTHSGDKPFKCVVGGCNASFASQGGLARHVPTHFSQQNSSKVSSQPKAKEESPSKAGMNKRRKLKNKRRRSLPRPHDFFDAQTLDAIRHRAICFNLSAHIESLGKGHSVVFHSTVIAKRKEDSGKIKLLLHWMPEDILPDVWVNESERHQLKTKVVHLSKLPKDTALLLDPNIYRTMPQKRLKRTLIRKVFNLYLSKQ

IC50 [nM]	Compound
5	CCCc1cc(C)[nH]c(=O)c1CNC(=O)c1cc(-c2ccc(N3CCN(C)CC3)nc2)cc2c1cnn2C(C)C [Example 24, 1-(1-methylethyl)-N-[(6-methyl-2-oxo-4-propyl-1,2-dihydro-3-pyridinyl)methyl]-6-[6-(4-methyl-1-piperazinyl)-3-pyridinyl]-1H-indazole-4-carboxamide]
10	CCCc1cc(C)[nH]c(=O)c1CNC(=O)c1cc(-c2ccc(N(C)C)nc2)cc2c1cnn2C(C)C [Example 18, 6-[6-(dimethylamino)-3-pyridinyl]-1-(1-methylethyl)-N-[(6-methyl-2-oxo-4-propyl-1,2-dihydro-3-pyridinyl)methyl]-1H-indazole-4-carboxamide]
32	Cc1cc(C)c(CNC(=O)c2cc(-c3ccc(N(C)C)nc3)cc3c2cnn3C(C)C)c(=O)[nH]1 [Example 27, 6-[6-(dimethylamino)-3-pyridinyl]-N-[(4,6-dimethyl-2-oxo-1,2-dihydro-3-pyridinyl)methyl]-1-(1-methylethyl)-1H-indazole-4-carboxamide]
25	1-isopropyl-N-((6-methyl-2-oxo-4-propyl-1,2-dihydropyridin-3-yl)methyl)-6-(thiophen-3-yl)-1H-indazole-4-carboxamide [Example 32]
13	CCCc1cc(C)[nH]c(=O)c1CNC(=O)c1cc(-c2cccnc2C)cc2c1cnn2C(C)C [Example 25, 1-(1-methylethyl)-N-[(6-methyl-2-oxo-4-propyl-1,2-dihydro-3-pyridinyl)methyl]-6-(2-methyl-3-pyridinyl)-1H-indazole-4-carboxamide]
8	Cc1cc(Cc2ccccc2)c(CNC(=O)c2cc(Br)cc3c2cnn3C(C)C)c(=O)[nH]1 [Example 5, 6-bromo-1-(1-methylethyl)-N-{[6-methyl-2-oxo-4-(phenylmethyl)-1,2-dihydro-3-pyridinyl]methyl}-1H-indazole-4-carboxamide]
3	CCc1cc(C)[nH]c(=O)c1CNC(=O)c1cc(-c2ccc(N3CCN(C)CC3)nc2)cc2c1cnn2C(C)C [Example 16, N-((4-ethyl-6-methyl-2-oxo-1,2-dihydropyridin-3-yl)methyl)-1-isopropyl-6-(6-(4-methylpiperazin-1-yl)pyridin-3-yl)-1H-indazole-4-carboxamide]
6	CCCc1cc(C)[nH]c(=O)c1CNC(=O)c1cc(-c2ccc(N3CCOCC3)nc2)cc2c1cnn2C(C)C [Example 19, 1-(1-methylethyl)-N-[(6-methyl-2-oxo-4-propyl-1,2-dihydro-3-pyridinyl)methyl]-6-[6-(4-morpholinyl)-3-pyridinyl]-1H-indazole-4-carboxamide]
8	CCCc1cc(C)[nH]c(=O)c1CNC(=O)c1cc(-c2cnc(C)nc2)cc2c1cnn2C(C)C [Example 17, 1-isopropyl-N-((6-methyl-2-oxo-4-propyl-1,2-dihydropyridin-3-yl)methyl)-6-(2-methylpyrimidin-5-yl)-1H-indazole-4-carboxamide]
5	CCc1cc(C)[nH]c(=O)c1CNC(=O)c1cc(-c2ccc(CN(C)C)cc2)cc2c1cnn2C(C)C [Example 14, 6-(4-((dimethylamino)methyl)phenyl)-N-((4-ethyl-6-methyl-2-oxo-1,2-dihydropyridin-3-yl)methyl)-1-isopropyl-1H-indazole-4-carboxamide]
5	CCCc1cc(C)[nH]c(=O)c1CNC(=O)c1cc(-c2ccc(CN(C)C)cc2)cc2c1cnn2C(C)C [Example 33, 6-{4-[(dimethylamino)methyl]phenyl}-1-(1-methylethyl)-N-[(6-methyl-2-oxo-4-propyl-1,2-dihydro-3-pyridinyl)methyl]-1H-indazole-4-carboxamide hydrochloride salt]
32	CCCc1cc(C)[nH]c(=O)c1CNC(=O)c1cc(Cl)cc2c1cnn2C(C)C [Example 1, 6-chloro-1-(1-methylethyl)-N-[(6-methyl-2-oxo-4-propyl-1,2-dihydro-3-pyridinyl)methyl]-1H-indazole-4-carboxamide]
